# Test results from patent publication US20250002974A1, “PROTECTING FULLY FUNCTIONAL NUCLEOTIDES FROM DEGRADATION” (Illumina, Inc., priority 2023, published 2025).
# Key:
# [1] = lyophilized ffN cakes with 30 mM cationic additive staged at 60° C. for 3 days, diphosphate by HPLC; format: physicochemical; conditions: 30 mM additive, 60° C. 3 days
# Experimental: FIG. 12 provides data showing the percent diphosphate ffC detected via HLPC after staging for 60° C. for 3 days (3D) in the presence of 30 mM imidazolium additive (lyophilized cakes; n=2; CTRL=control sample with no additive).
# FIG. 13 provides data showing the percent diphosphate ffC detected via HLPC after staging for 60° C. for 3 days (3D) in the presence of 30 mM pyridinium additives (lyophilized cakes; n=2; CTRL=control with no additive).
# FIG. 14 provides data showing the percent diphosphate ffC detected via HLPC after staging for 60° C. for 3 days (3D) in the presence of 30 mM quaternary additives (lyophilized cakes; n=2; CTRL=control with no additive).
# The efficacies of the other cationic substrates were also tested. This was performed using lyophilized ffN cake samples that were formulated with and without said additives, and by staging at an arbitrarily selected stress condition of 60° C. for a period of 3 days.
# [2] = stability of ffNs in dry state (TBMACL) or liquid state (CHAPS); format: physicochemical
# Description: FIG. 24 provides data showing that addition of the cationic compound Tributylmethylammonium chloride (TBMACL) to ffNs in a dry state increases stability of triphosphate on the ffNs.
# FIG. 25 provides data showing that the addition of CHAPS as well as CHAPS and TBMACL to ffNs in a liquid state increases the stability of intact ffNs.
# [3] = ffNs stored with CHAPS at 45° C. for 7 or 21 days, percent peak area retention; format: physicochemical
# Experimental: CHAPS was tested to determine if it prevented degradation of ffNs as the level of heat stress increased. In one of the reaction conditions ffNs were stored with CHAPS for 7 days at 45° C., and the other reaction condition ffNs were stored with CHAPs for 21 days at 45° C.
# [4] = ffN stability staged with surfactants in solution, 45° C. 7 days; format: physicochemical; conditions: 45° C. for 7 days, solution format
# Experimental: Each of the surfactants was tested at two different concentrations, 0.5% and 2%.
# [5] = ffN stress test with or without 10 mM DADMAC, purity by HPLC peak area percent; format: physicochemical
# Experimental: DADMAC (diallyldimethylammonium chloride): 100 μM ffNs were stressed in the presence of 10 mM DADMAC (FIG. 19) in 15 mM 3-(N-morpholino)propanesulfonic acid (MOPS) buffer and 5× glycine buffer (250 mM glycine pH 9.9, 250 mM NaCl, 5 mM ethylediaminetetraacetic acid (EDTA)). Each type of ffNs were tested: ffA, ffC, ffT, and ffG.
# The samples were staged for 2 days at 40° C. in the glycine buffer, 2 days at 65° C. and 7 days at 4° C. in the MOPS buffer. DADMAC was tested to see if it could be added to the incorporation mix or ffN mixtures without causing any negative interactions with ffNs.
# [6] = 1 to 40 mM TBACL; 45° C. 7 days; solution format
# Description: As such, even higher concentrations of cations were not pursued.
# [7] = test system: Arthrobacter russicus; assay: bacterial growth in incorporation mix with TBMACL titration, plating for CFU/ml; format: cell-based
# Experimental: To confirm the biocidal effect of TBMACl within liquid sequencing reagents, a titration of TBMACL from 9 mM to 90 mM in incorporation mix was prepared. These experiments were carried out with the omission of polymerase and ffNs in the formulation, as they were not required for the further analysis. On day 0, samples were inoculated with 3×10^6 CFU/ml of the bacteria Arthrobacter russicus. The samples were staged at 12° C. for 0, 14 and 30 days, followed by plating to determine CFU/ml. FIGS. 26-27 provide data showing use of a bulky cationic compound to inhibit bacterial growth. More specifically, FIG. 26 illustrates A. russicus growth in a titration of TBMACL over 30 days at 12° C.; the data shown is on a linear Y axis. FIG. 27 illustrates the same data, with a logarithmic scale Y axis. It may be understood from FIGS. 26-27 that the greater the concentration of TBMACL, the greater the inhibition of bacterial growth. […] In the absence of TBMACL, the CFU/ml increase by about 1.8-fold over 30 days. […] The sample with 90 mM TBMACL appeared to kill essentially all bacteria by day 14, and all bacteria appeared to remain dead at day 30.
# [8] = ffNs stored with TBMACL for 35 days at 35° C. or 45° C., diphosphate production; format: physicochemical
# Experimental: TBMACL was tested to determine if it provided protection to the triphosphate of ffNs as heat stress increased. ffNs were stored with TBMACL for 35 days. In one of the storage conditions, the temperature was 35° C. and in the other storage condition, the temperature was 45° C. […] At 35° C. for 35 days TBMACL caused a 10% reduction in diphosphate production. This can be compared to 45° C. for 35 days where TBMACL caused a 17% reduction in diphosphate production.
smiles,measurement,setting,value
"Cl.N [ACL, ammonium chloride]",effect on triphosphate stability / diphosphate formation,[1],higher level of diphosphate formation
"CCCC[n+]1ccccc1.[Br-] [BPB, 1-butylpyridinium bromide]",reduction in diphosphate ffN formed vs control without additive,[1],approximately 17%
"C[C@H](CCC(=O)NCCC[N+](C)(C)CCCS(=O)(=O)[O-])[C@H]1CC[C@H]2[C@@H]3[C@H](O)C[C@@H]4C[C@H](O)CC[C@]4(C)[C@H]3C[C@H](O)[C@]12C [CHAPS, 3-[(3-cholamidopropyl)dimethylammonio]-1-propanesulfonate]",stability of triphosphate species of ffNs,[2]; ffNs in a liquid state,increased the stability of trisphosphate species
same,improvement in percent peak area retention,[3]; 7 days at 45° C.,27%
same,improvement in percent PA retention,[3]; 21 days at 45° C.,113%
same,increase in ffN retention against the control sample,[4],~40%
"C=CC[N+](C)(C)CC=C.[Cl-] [DADMAC, diallyldimethylammonium chloride]",effect of DADMAC on ffN purity and diphosphate,"[5]; high temperatures, all 4 ffNs",higher % ffN purity as compared to control and lower levels of diphosphate
same,effect of DADMAC on ffNs,[5]; milder stress conditions,no negative effect
"CC[n+]1ccc(C(=O)OC)cc1.[I-] [EMPI, 1-ethyl-4-(methoxycarbonyl)pyridinium iodide]",effect on triphosphate stability / diphosphate formation,[1],negatively impacted triphosphate stability
"CCCC[N+](CCCC)(CCCC)CCCC.[Cl-] [TBACL, tetrabutylammonium chloride]",dephosphorylation (percent diphosphate ffC),[6],reduced dephosphorylation
"CCCC[N+](C)(CCCC)CCCC.[Cl-] [TBMACL, tributylmethylammonium chloride]",reduction in diphosphate ffN formed vs control without additive,[1],≤ 23%
same,stability of triphosphate species of ffNs,[2]; ffNs in a dry state,increased stability of the trisphosphate species
same,effect on bioburden load (CFU/ml),"[7]; 9 mM TBMACL, 30 days at 12° C.",approximately static effect
same,reduction of CFU/ml,"[7]; 22.5 mM TBMACL, 30 days at 12° C.",6 fold
same,reduction of CFU/ml,"[7]; 45 mM TBMACL, 30 days at 12° C.",8.6 fold
same,reduction of CFU/ml,"[7]; 90 mM TBMACL, 30 days at 12° C.","about 78,000 fold"
same,biocidal effect on bacterial growth,[7]; titration 9 mM to 90 mM in incorporation mix,dose-dependent biocidal effect
same,reduction in diphosphate production,[8]; 35° C. for 35 days,10%
same,reduction in diphosphate production,[8]; 45° C. for 35 days,17%
